The record followed here is a melting point compilation (Tetko et al.; mined from patent text by program, amines drawn as free bases though some values may be those of a salt).

Residues, ends and D or L forms follow the SMILES beside them. *: point of attachment. For = O=C*

Broadly, the melting point is the temperature of the solid-liquid transition. In turn, `COc1ccc(NC(=O)N(Cc2ccccn2)C2CCCCCC2)c(NC(=O)c2cc(C(C)(C)C)c(O)c(C(C)(C)C)c2)c1` came in with a melting point of 165 to 166 °C.

Compound `CC(C)COc1ccc(-n2cc(C(=O)O)cn2)cc1C#N` yielded a melting point of 192 to 194 °C. The value for `Cc1cc(NC2=NCCN2)n(-c2cccc3ccccc23)n1` was 221 to 224 °C; that for `COC(=O)c1ccc(CN([C@@H](CO)c2ccccc2)S(=O)(=O)c2ccc(Cl)cc2)cc1` was 104 to 106 °C; that for `Nc1c(NC(=O)CC23CCCN2CCC3)cnc2ccccc12` was 205 to 209 °C.

Take `CN=C(NC#N)N1CCc2[nH]cnc2C1`: the melting point was 240 °C.

In turn, `O=C(O)CCC(=O)c1ccc(-c2ccc(Cl)s2)cc1` returned a melting point of 212 to 213 °C.

`COC(=O)CCCC(=O)c1ccc(OC)c(CCC(=O)OC)n1`: the melting point lay within 64 to 66 °C. The value for `Fc1ccc(-c2nc(SC(F)(F)C(F)F)[nH]c2-c2ccncc2)cc1` was 242 to 248 °C; that for `CC(CCc1cccc(OCCC(NC(=O)OCc2ccccc2)C(=O)O)c1)=NNC=NN` (centres undefined) was 95 to 100 °C. For the compound `CCC(C)OC(=O)SN(C(=O)N1CC2(C(=O)OC)CCc3ccccc3C2=N1)c1ccc(C(F)(F)F)cc1` (centres undefined), the melting point was 125 to 126 °C. Next, `Nc1nc(-c2cc(Cl)ccc2Cl)nc(N2CCCCC2)n1`: 192 to 194 °C. Next, `OCc1cc(Cl)c(F)c(Cl)c1F`: 55 °C; `O=C(O)c1cn(-n2cnnc2)c2nc(Cl)c(F)cc2c1=O`: 230 °C. Next, `O=C1CC(c2ccc(OCc3ccccc3)cc2)=Nc2ccc(N3CCCC3)cc21`: 330 to 332 °C; `N#CCCn1c(-c2ccccc2)cc2ccccc21`: 90 °C; `CCOC(=O)c1sc(C)c2nc(OCC)n(Cc3ccc(-c4ccccc4C#N)cc3)c12`: 153 to 155 °C. On to `Cc1cn(NCCCc2ccncc2F)c2ccc(O)cc12`, for which the melting point is 157 to 160 °C. The value for `COC(=O)C1=C(C)NC(C)=C(C(=O)OCCCCCCN2C(=O)c3ccccc3C2=O)C1c1cccc([N+](=O)[O-])c1` (centres undefined) was 134 to 140 °C. On to `C=CCC1CC(NC(=O)C(F)(F)F)C(OC(=O)c2ccc([N+](=O)[O-])cc2)C(C)O1` (centres undefined), for which the melting point fell in the range of 138 to 139 °C. Take `CCC(=NO)c1ccc(Oc2cc(F)cc([C@@]3(OC)CCO[C@@H]3C)c2)cc1` (racemic): the melting point was 94 to 96 °C. Next, `COc1cc(Nc2c(C#N)cnc3cc(-c4ccc(CN(C)C)cc4)ccc23)c(Cl)cc1Cl`: 187 to 189 °C; `O=C(c1ccccc1)N1CCc2cc(S(=O)(=O)n3cc(-c4ccccc4)[nH]c3=O)ccc21`: 167 to 170 °C. Next, `CNc1nnc(-c2ccc3ncn(-c4ccc(SC)cc4)c3c2)o1`: 224 to 225 °C. Next, `COc1cc(Nc2c(C#N)cnc3cc(-c4ccc(C=O)cc4)sc23)cc(OC)c1OC`: 268 to 270 °C; `CCC(CC)n1c(N)nc2c(Oc3c(C)cc(C)cc3C)nc(C)cc21`: 208 to 210 °C; `O=C(NCC(=O)N1[C@@H](c2ccccc2O)CC[C@H]1c1ccccc1)Nc1cccc(C(=O)O)c1` (racemic): 160 °C.

The compound `COc1ccc(-n2nc(C(O)c3ccccc3)cc2-c2ccc(C)cc2)cc1` (centres undefined) had a melting point of 101 to 103 °C.

For `COc1ccc([C@@H]2Sc3cc(Cl)ccc3N(CCN(C)C(=O)OCc3ccccc3)C(=O)[C@@H]2O)cc1`, the melting point stood at 108 °C. The value for `CCOC(=O)c1cn(-c2cccnc2)cn1` was 102 to 103 °C; that for `O=C1NCCNN1c1cc(C(F)(F)F)cc(Cl)n1` was 191 to 192 °C. Next, `CCC(C)(C)C(=O)Oc1cc2c(s1)CCN([C@H](C(=O)OC)c1ccccc1Cl)C2`: 98 to 100 °C. Next, `CCC(=O)C(CCCCCCOc1ccc(OCc2ccccc2)cc1)C(=O)CC`: 82 to 84 °C. For the compound `O=CNC(CC(=O)O)C(=O)NC(Cc1ccccc1)C(=O)O` (stereo not drawn) (For-Asp-Phe-OH; configuration not given here), the melting point is 180 to 182 °C. Next, `CCCCCCCCCCCCCCCCCCSCCCCCCCCCCC(N)=O`: 108 °C. Next, `CN(C)CCCOc1ccc2ccc(N)nc2n1`: 88 °C; `O=C1N[C@H](Cc2ccc(C(F)(F)F)cc2)[C@H](c2ccc(F)cc2F)O1` (racemic): 147 to 148 °C; `CCc1nccc(N(C(=O)Cc2ccc(Oc3ccc(C(F)(F)F)cn3)cc2)C(=O)OC)c1Cl`: 62 to 64 °C.

Consider `CCOC(=O)CC1(CC)OCCc2c1[nH]c1ccccc21` (centres undefined), for which the melting point is under 80 °C.

`CCc1nccn1CCc1ccc(Nc2ncc(C#N)c(-c3ccc(C(C)(C)N)cc3)n2)cc1` came in with a melting point of 138 °C. Turning to `NC(=O)c1c(Cl)c(-c2ccccc2)n2c1CN(C(=O)N1CCOCC1)CC2`, the melting point was in the range of 219 to 220 °C. Next, `C=Cc1ccc(OC(=O)C(Cl)(Cl)Cl)cc1`: 37 to 39 °C; `O=Cc1cccc(OCc2ccccc2)c1Br`: 125 to 126 °C. Next, `CC(=O)c1ccc(-n2sc3ccccc3c2=O)cc1`: 183 to 185 °C; `COc1cc(NS(=O)(=O)c2ccc(N3CCNC3=O)cc2)cc(OC)c1OC`: 233 to 235 °C; `O=C(OC(F)C(F)F)c1cnccn1` (centres undefined): 46 to 48 °C. The value for `O=C(O)c1cc(OCCOc2cccc3ccccc23)cc(OCCOc2cccc3ccccc23)c1` was 213 to 215 °C. `C#CCCCOc1c(C)cc(-c2nc(C)no2)cc1C`: the melting point is 38 to 40 °C.

For the compound `O=S(=O)(Nc1ccc2c(OCc3ccc(I)cc3)cccc2c1)C(F)(F)F`, the melting point was in the range of 120 to 122 °C.

`CCCCc1ncc(/C=C(\C)C(=O)O)n1Cc1ccccc1Cl` returned a melting point of 228 to 229 °C. `Cn1c(=O)cc(CCc2ccc(Cl)s2)c2cc(C(O)(c3ccc(Cl)cc3)c3cccnc3)ccc21` (centres undefined): the melting point worked out at 110 °C.

The compound `COc1c(-c2cc3c(s2)C(O)CCC3)ccc2c(=O)c(C(=O)O)cn(C3CC3)c12` (centres undefined) yielded a melting point of 238 to 240 °C. The value for `Cc1c(C(O)Cc2ccccc2)cc(I)[nH]c1=O` (centres undefined) was 166 to 167 °C; that for `COC(=O)c1cccc2[nH]c(=O)c(-c3csc(-c4ccncc4)n3)cc12` was over 250 °C; that for `COc1cc2c(cc1OC)C(Oc1ccccc1)CN(NC(=O)c1cc(Cl)cc(Cl)c1)CC2` (centres undefined) was 184 to 185 °C.

`CC(C)n1cnc2c(NCc3cc(O)ccc3O)nc(NC[C@@H](C)O)nc21` came in with a melting point of 162 to 164 °C.

The compound `O=C(C=Cc1ccccc1Sc1ccc(Cl)cc1)N1CCCC1=O` returned a melting point of 144 to 147 °C. The value for `CC(C)=Cc1cn(-c2c(Cl)cc(C(F)(F)F)cc2Cl)nc1C#N` was 72 to 74 °C; that for `COC(=O)c1cccc2cc(C)sc12` was 48 to 49 °C. The value for `Cc1cc(C)c2c(=O)n(CC(=O)N3CCOCC3)sc2n1` was 200 to 203 °C; that for `Cc1cc2ncc(Nc3ccc(Cl)c(Cl)c3)nc2cc1C` was 229 °C. The value for `Cc1cc(C(C)(C)C)c(O)c(C)c1CSP(=S)(C1CCCCC1)C1CCCCC1` was 113 to 116 °C; that for `CC(C)C(=O)Nc1ccnc(-c2ccncc2)n1` was 215 to 217 °C; that for `COC(=O)C1=Cc2ccccc2N(C)CCC1` was 80 to 82 °C. The compound `O=C1C(Cl)=C(c2ccccc2)C(=O)N1Nc1ccc(F)cc1` returned a melting point of 115 to 117 °C. The value for `CC(=O)c1ccc(NCc2c(O)ccc3c2CCCO3)cc1` was 213 to 215 °C; that for `Cc1ccc(-c2cccc(CCl)n2)cc1` was 94 °C; that for `CCN(CC)Cc1cccc(-c2cc(OCc3ccccc3)c3cc(OC)ccc3n2)c1` was 89.2 to 89.5 °C.

In turn, `CCc1c(C(=O)NNC(=O)C(O)c2cc(F)cc(F)c2)ccc(OC)c1C` (centres undefined) showed a melting point of 197 °C. Next, `CN1CCC(C(=O)CCc2ccccc2O)CC1`: 99 to 101 °C; `COc1ccc(C2=NN(C3CCN(S(=O)(=O)c4ccccc4C)CC3)C(=O)C(C)(C)C2)cc1OC`: 132 to 133 °C. Take `CC1CCN(C2C3=CC(OC3=O)C3C(CC4(C)OC4C2O)OC(=O)C3C)CC1` (centres undefined): the melting point worked out at 210 °C. The value for `CCOC(=O)NC(=O)C1c2ccccc2Sc2ccccc21` was 179 to 182 °C; that for `CC(NC(=S)Nc1ccc(N2CCCCC2)nc1)C(C)(C)C` (centres undefined) was 151 to 153 °C. Next, `COc1ccc(-c2ccncc2)cc1`: 94 to 96 °C; `Cn1c([N+](=O)[O-])cnc1-c1nnc(N)s1`: 266 to 268 °C.

With `COc1cc(OC(C)C)cc2oc(C)cc(=S)c12`, the melting point is 113 to 114 °C.

In turn, `CCOc1ccc(OC)c2c1CCC=C2` displayed a melting point of 59 to 60 °C.

Consider `COc1ccc2nc(Cl)nc(N(C)c3ccccc3)c2c1`, for which the melting point is 133 to 134 °C. Next, `CCCc1nc(C(O)C(C)C)c(C(N)=O)n1Cc1ccc(-c2ccccc2-c2nnn[nH]2)cc1` (centres undefined): 153 to 157 °C.

The compound `FC(F)(F)Oc1ccc(-c2coc3ccc(-c4nnc(S)o4)cc23)cc1` gave a melting point of 197 to 198 °C. The value for `CC(C)NC(=O)c1ccc(-c2ccc3nnn(Cc4ccc5ncccc5c4)c3n2)cc1F` was 177 to 179 °C; that for `O=[N+]([O-])c1ccc(NCCc2ccccc2)c(S(=O)(=O)CCO)c1` was 95 to 95.5 °C; that for `O=C1OCCc2ccc([N+](=O)[O-])cc21` was 124 to 125 °C. Take `COc1ccc2c(c1)OC(CNCCCOc1ccc3c(=O)ccoc3c1)CO2` (centres undefined): the melting point lay within 155 to 157 °C. The value for `O=C(O)C1=NN(c2cccc(Cl)c2)C(c2ccccc2)CC1` (centres undefined) was 157 to 158 °C; that for `O=C(NN1CCOCC1)C(CS)Cc1c(Cl)cccc1Cl` (centres undefined) was 142 °C; that for `O=S(=O)(Nc1cccc(C(=NO)c2cccnc2)c1)c1ccc(Cl)cc1` was 170 °C. In turn, `CC(=O)CC(=O)NC1CCC(C)CC1` (centres undefined) returned a melting point of 111 °C.
